Each structure is given as a SMILES string. Like-named read-outs stand apart in the source and are kept apart here.

Common to all, as to assay type: in vivo
Data set [1] concerns Beet Armyworm (Spodoptera exigua, LAPHEG). Nature of the data set: Bioassays on Beet Armyworm (BAW), 128-well diet tray assay. The note with it: Spodoptera exigua. In short, it runs like this:
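Larvae at second instar are exposed on dried, compound-treated diet (50 μg/cm^2, delivered in 90:10 acetone-water) in eight replicate wells. After five to seven days at 25° C., 14:10 light-dark, percent mortality in each well is scored and the eight wells averaged.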

The subject of data set [2] is Yellow Fever Mosquito (Aedes aegypti, AEDSAE). To be noted: for YFM rating: Table ABC / ABC-DP rating. In short, it runs like this:
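Compounds from DMSO master plates (4000 ppm stock) diluted in 90:10 water/acetone, then dispensed into six replicate plates and infested with ~1-day-old Aedes aegypti larvae in liver-powder water. Held covered at room temperature for 3 days; each well scored for larval mortality and graded on a rating scale.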

The test system of data set [3] is Cabbage Looper (Trichoplusia ni, TRIPNI). Nature of the data set: Bioassays on Cabbage Looper (CL), 128-well diet tray assay. To be noted: Trichoplusia ni. The essentials: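 Activity is mean percent mortality over eight wells of second-instar larvae exposed to diet treated at 50 μg/cm^2 for 5–7 days at 25° C.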
Where [4] appears, read: Beet Armyworm, Table ABC / ABC-DP rating, read-out: BAW rating.
[5] abbreviates: Cabbage Looper, Table ABC / ABC-DP rating, read-out: CL rating.
[6] abbreviates: Table ABC: Biological Results, species BAW, read-out: BAW.
The mark [7] stands for this setting: Table ABC: Biological Results, species YFM.
The mark [8] stands for this setting: Table ABC: Biological Results, species CL, read-out: CL.

As for `CC(OC(F)(F)F)C(=O)Nc1c(F)ccc(NC(=O)c2cc(NC(=O)[C@H]3[C@H](c4ccc(F)c(C(F)(F)F)c4)C3(Cl)Cl)ccc2Cl)c1F` (stereo partly drawn) [F1771, 2-Chloro-5-((1R,3R)-2,2-dichloro-3-(4-fluoro-3-(trifluoromethyl)phenyl)cyclopropane-1-carboxamido)-N-(2,4-difluoro-3-(2-(trifluoromethoxy)propanamido)phenyl)benzamide], the pest or weed control at 50 µg/cm2 in data set [1] (setting [4]) and in data set [3] (setting [5]) was 50 to 100% each time. The YFM rating entry in data set [2] (Yellow Fever Mosquito) is on record as “A (80–100)”.
In the case of `O=C(Nc1ccc(F)c(NC(=O)C2(F)OC(F)(F)C(F)(F)C2(F)F)c1F)c1cc(NC(=O)[C@H]2[C@H](c3ccc(F)c(C(F)(F)F)c3)C2(Cl)Cl)ccc1Cl` (stereo partly drawn) [F1782, N-(3-(2-Chloro-5-((1R,3R)-2,2-dichloro-3-(4-fluoro-3-(trifluoromethyl)phenyl)cyclopropane-1-carboxamido)benzamido)-2,6-difluorophenyl)-2,3,3,4,4,5,5-heptafluorotetrahydrofuran-2-carboxamide], the pest or weed control at 50 µg/cm2 in data set [1] (setting [4]) and in data set [3] (setting [5]) was 50 to 100% each time. Besides, the YFM rating result in data set [2] (Yellow Fever Mosquito) is recorded as “A (80–100)”.
Turning to `Cc1cc(NCCO)ccc1NC(=O)c1cc(NC(=O)[C@H]2[C@H](c3cc(Cl)cc(Cl)c3)C2(Cl)Cl)ccc1Cl` (relative stereo) [F1130, trans-2-chloro-5-(2,2-dichloro-3-(3,5-dichlorophenyl)cyclopropane-1-carboxamido)-N-(4-((2-hydroxyethyl)amino)-2-methylphenyl)benzamide], the pest or weed control at 50 µg/cm2 in data set [1] (setting [6]) and in data set [3] (setting [8]) was 50 to 100% each time. Also, in data set [2] (setting [7]), the YFM entry was “A (80–100)”.
Consider `Cc1cc([C@H]2[C@H](C(=O)Nc3ccc(Cl)c(C(=O)Nc4ccc(F)cc4F)c3)C2(Cl)Cl)cc(C(F)(F)F)c1F` (relative stereo) [F1066, trans-2-Chloro-5-(2,2-dichloro-3-(4-fluoro-3-methyl-5-(trifluoromethyl)phenyl)cyclopropane-1-carboxamido)-N-(2,4-difluorophenyl)benzamide], for which the pest or weed control at 50 µg/cm2 in data set [1] (setting [6]) and in data set [3] (setting [8]) was 50 to 100% throughout. The YFM result in data set [2] (setting [7]) is “A (80–100)”.
Regarding `O=C(CC(F)(F)F)Nc1c(F)ccc(NC(=O)c2cc(NC(=O)[C@H]3[C@H](c4cc(Cl)c(Cl)c(Cl)c4)C3(Cl)Cl)ccc2Cl)c1F` [F1651, 2-Chloro-5-((1R,3R)-2,2-dichloro-3-(3,4,5-trichlorophenyl)cyclopropane-1-carboxamido)-N-(2,4-difluoro-3-(3,3,3-trifluoropropanamido)phenyl)benzamide], the pest or weed control at 50 µg/cm2 was 50 to 100% in data set [1] (Beet Armyworm, rating class, read-out: BAW) and 50 to 100% in data set [3] (Cabbage Looper, rating class, read-out: CL). The YFM result in data set [2] (Yellow Fever Mosquito, rating class) is “A (80–100)”.
For `C#CCN(C(=O)c1cc(NC(=O)[C@H]2[C@H](c3ccc(F)c(C(F)(F)F)c3)C2(Cl)Cl)ccc1Cl)c1ccc(F)c(N)c1F` (relative stereo) [F1114, trans-N-(3-Amino-2,4-difluorophenyl)-2-chloro-5-(2,2-dichloro-3-(4-fluoro-3-(trifluoromethyl)phenyl)cyclopropane-1-carboxamido)-N-(prop-2-yn-1-yl)benzamide], the pest or weed control at 50 µg/cm2 in data set [1] (setting [6]) and in data set [3] (setting [8]) was 50 to 100% in each case. Moreover, in data set [2] (setting [7]), the YFM entry is recorded as “A (80–100)”.
Regarding `CC(Br)CC(=O)Nc1c(F)ccc(NC(=O)c2cc(NC(=O)[C@H]3[C@H](c4ccc(F)c(C(F)(F)F)c4)C3(Cl)Cl)ccc2Cl)c1F` (stereo partly drawn) [F1853, N-(3-(3-Bromobutanamido)-2,4-difluorophenyl)-2-chloro-5-((1R,3R)-2,2-dichloro-3-(4-fluoro-3-(trifluoromethyl)phenyl)cyclopropane-1-carboxamido)benzamide], the pest or weed control at 50 µg/cm2 in data set [1] (setting [4]) and in data set [3] (setting [5]) was 50 to 100% each time. For the same compound, the YFM rating result in data set [2] (Yellow Fever Mosquito) is listed as “A (80–100)”.
For the compound `O=C(NNc1ccc(Cl)nn1)c1cc(NC(=O)[C@H]2[C@H](c3cc(Cl)cc(Cl)c3)C2(Cl)Cl)ccc1Cl` (relative stereo) [F2506, trans-2,2-Dichloro-N-(4-chloro-3-(2-(6-chloropyridazin-3-yl)hydrazine-1-carbonyl)phenyl)-3-(3,5-dichlorophenyl)cyclopropane-1-carboxamide], the pest or weed control at 50 µg/cm2 in data set [1] (setting [4]) and in data set [3] (setting [5]) was 50 to 100% in each case. The YFM rating result in data set [2] (Yellow Fever Mosquito) was “A (80–100)”.
For the compound `CC(Cl)(Cl)C(=O)Nc1c(F)ccc(NC(=O)c2cc(NC(=O)[C@H]3[C@H](c4ccc(F)c(C(F)(F)F)c4)C3(Cl)Cl)ccc2Cl)c1F` [F1351, 2-Chloro-5-((1R,3R)-2,2-dichloro-3-(4-fluoro-3-(trifluoromethyl)phenyl)cyclopropane-1-carboxamido)-N-(3-(2,2-dichloropropanamido)-2,4-difluorophenyl)benzamide], the pest or weed control at 50 µg/cm2 in data set [1] (setting [6]) and in data set [3] (setting [8]) was 50 to 100% throughout. The YFM result in data set [2] (setting [7]) is recorded as “A (80–100)”.
For the compound `Nc1ccc(F)c(NC(=O)c2cc(NC(=O)[C@H]3[C@H](c4ccc(F)c(C(F)(F)F)c4)C3(Cl)Cl)ccc2Cl)c1F` [F1391, N-(3-Amino-2,6-difluorophenyl)-2-chloro-5-((1R,3R)-2,2-dichloro-3-(4-fluoro-3-(trifluoromethyl)phenyl)cyclopropane-1-carboxamido)benzamide], the pest or weed control at 50 µg/cm2 in data set [1] (setting [6]) and in data set [3] (setting [8]) was 50 to 100% throughout. Moreover, the YFM entry in data set [2] (setting [7]) was “A (80–100)”.
For the compound `O=C(NNC(=S)Nc1ccccc1)c1cc(NC(=O)[C@H]2[C@H](c3cc(Cl)cc(Cl)c3)C2(Cl)Cl)ccc1Cl` (relative stereo) [F2541, trans-2,2-Dichloro-N-(4-chloro-3-(2-(phenylcarbamothioyl)hydrazine-1-carbonyl)phenyl)-3-(3,5-dichlorophenyl)cyclopropane-1-carboxamide], the pest or weed control at 50 µg/cm2 in data set [1] (setting [4]) and in data set [3] (setting [5]) was 50 to 100% in each case. The YFM rating entry in data set [2] (Yellow Fever Mosquito) is “A (80–100)”.
As to `O=C(NNC(=O)c1cc(NC(=O)[C@H]2[C@H](c3cc(Cl)cc(Cl)c3)C2(Cl)Cl)ccc1Cl)OC(F)(F)F` (relative stereo) [F2543, trans-Trifluoromethyl 2-(2-chloro-5-(2,2-dichloro-3-(3,5-dichlorophenyl)cyclopropane-1-carboxamido)benzoyl)hydrazine-1-carboxylate], the pest or weed control at 50 µg/cm2 in data set [1] (setting [4]) and in data set [3] (setting [5]) was 50 to 100% throughout. For the same compound, in data set [2] (Yellow Fever Mosquito), the YFM rating entry is on record as “A (80–100)”.
In the case of `O=C(NCC(F)(F)c1ccccc1)c1cc(NC(=O)[C@H]2[C@H](c3cc(Cl)cc(Cl)c3)C2(Cl)Cl)ccc1Cl` (relative stereo) [F2077, trans-2-Chloro-5-(2,2-dichloro-3-(3,5-dichlorophenyl)cyclopropane-1-carboxamido)-N-(2,2-difluoro-2-phenylethyl)benzamide], the pest or weed control at 50 µg/cm2 in data set [1] (setting [4]) and in data set [3] (setting [5]) was 50 to 100% each time. The YFM rating result in data set [2] (Yellow Fever Mosquito) is reported as “B (More than 0 – Less than 80)”.
For the compound `Nc1cc(NC(=O)c2cc(NC(=O)[C@H]3[C@H](c4ccc(Cl)c(Cl)c4)C3(Cl)Cl)ccc2Cl)c(F)cc1F` [DP5, N-(5-Amino-2,4-difluorophenyl)-2-chloro-5-((1R,3R)-2,2-dichloro-3-(3,4-dichlorophenyl)cyclopropane-1-carboxamido)benzamide], the mortality at 50 µg/cm2 in data set [1] (168 h, second instar larvae, 50 μg/cm^2 of test molecule on artificial diet, 25° C., five to seven days, average of eight wells, read-out: BAW % Control (or Mortality) rating) was in the range of 50 to 100%; in data set [3] (168 h, second instar larvae, 50 μg/cm^2 of test molecule on artificial diet, 25° C., five to seven days, average of eight wells, read-out: CL % Control (or Mortality) rating) it was 50 to 100%. Also, the pest or weed control at 50 µg/cm2 in data set [1] (setting [4]) and in data set [3] (setting [5]) was 50 to 100% throughout. Also, in data set [2] (Yellow Fever Mosquito), the YFM rating entry is listed as “A (80–100)”. The “YFM % Control (or Mortality) rating” value in data set [2] (about 1 day-old larvae, 4000 ppm master solution diluted with 90:10 water/acetone, 15 μL per well plus 220 μL larval mixture, 3 days, mortality) is “A (80–100)”.
Turning to `Cc1c(N)ccc(NC(=O)c2cc(NC(=O)[C@H]3[C@H](c4ccc(F)c(C(F)(F)F)c4)C3(Cl)Cl)ccc2Cl)c1C` [F1389, N-(4-Amino-2,3-dimethylphenyl)-2-chloro-5-((1R,3R)-2,2-dichloro-3-(4-fluoro-3-(trifluoromethyl)phenyl)cyclopropane-1-carboxamido)benzamide], the pest or weed control at 50 µg/cm2 in data set [1] (setting [6]) and in data set [3] (setting [8]) was 50 to 100% in each case. Moreover, in data set [2] (setting [7]), the YFM entry is listed as “A (80–100)”.
As for `O=C(Nc1ccc(F)c(NC(=O)C(F)(F)Cl)c1F)c1cc(NC(=O)[C@H]2[C@H](c3ccc(F)c(C(F)(F)F)c3)C2(Cl)Cl)ccc1Cl` [F1170, 2-Chloro-N-(3-(2-chloro-2,2-difluoroacetamido)-2,4-difluorophenyl)-5-((1R,3R)-2,2-dichloro-3-(4-fluoro-3-(trifluoromethyl)phenyl)cyclopropane-1-carboxamido)benzamide], the pest or weed control at 50 µg/cm2 in data set [1] (setting [6]) and in data set [3] (setting [8]) was 50 to 100% in each case. For the same compound, in data set [2] (setting [7]), the YFM entry was “A (80–100)”.

Values taken from patent US20250228239A1, “MOLECULES HAVING PESTICIDAL UTILITY, AND INTERMEDIATES, COMPOSITIONS, AND PROCESSES, RELATED THERETO” (priority 2024, published 2025).
